Test results taken from patent EP3797769A1, “COMPOSITION FOR THERAPEUTIC USE” (Fontès, M. Michel, priority 2019, dated 2021).

Tested on: fibroblastes d'un patient souffrant de CMTX
Experiment: Abnormal cell nuclei (DAPI staining, Mitocheck classification) in fibroblasts of a CMTX patient
Format: cell-based, humain
Details: fibroblasts of the CMTX1 patient treated with clémastine at 10µmole; untreated patient cells about 30%, healthy individual less than 1% (Figure 1)
Source text: Les anomalies des noyaux cellulaires sont étudiées en déposant les fiboblastes sur des lames de microscopie et en colorant les noyaux à de l'aide 4',6-diamidino-2-phénylindole, ou DAPI, les rendant ainsi fluorescents. Les anomalies nucléaires sont classées selon la classification établie par le Mitocheck, à savoir : i) les noyaux mal formés, ii) les noyaux polylobés, iii) les noyaux non séparés et iv) les autres.

## CN1CCC[C@@H]1CCO[C@](C)(c1ccccc1)c1ccc(Cl)cc1 [clémastine]
  pourcentage des noyaux anormaux: ~5%
